As usually defined, the melting point is the temperature of the solid-liquid transition.

Consider 2 molecules from patent publication US20100048633A1, “Piperidine-4-acrylamides” (priority 2007, published 2010).

The target in one series is T1, human CCR3 (Homo sapiens, UniProt P51677).
T1 construct: expressed in transfected cells; membranes
T1 sequence (P51677 1-355): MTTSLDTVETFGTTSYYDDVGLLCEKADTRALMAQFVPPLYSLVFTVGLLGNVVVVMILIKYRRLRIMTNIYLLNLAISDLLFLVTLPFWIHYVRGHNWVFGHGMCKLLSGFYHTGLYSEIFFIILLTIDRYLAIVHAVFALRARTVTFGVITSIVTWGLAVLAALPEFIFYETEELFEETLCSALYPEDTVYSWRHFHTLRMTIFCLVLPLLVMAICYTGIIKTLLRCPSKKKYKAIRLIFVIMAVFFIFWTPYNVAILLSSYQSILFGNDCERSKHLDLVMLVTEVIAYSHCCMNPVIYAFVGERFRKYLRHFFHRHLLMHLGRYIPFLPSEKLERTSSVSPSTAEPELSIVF
Nature of the series: binding of [125I]-human eotaxin to human CCR3 (SPA, membranes of RBL-2H3 cells expressing CCR3). As to conditions: [125I]-human eotaxin 50 pM, 4 hours at room temperature; read-out: IC50 (concentration of test compound at which 50% inhibition of eotaxin binding to CCR3 occurs). Here is the method:
In this assay the effect of the compounds of the present invention on the binding of human eotaxin to human CCR3 is determined. Recombinant cells expressing human CCR3 are captured by wheatgerm agglutinin (WGA) polyvinyltoluidene (PVT) SPA beads (available from Amersham), through a specific interaction between the WGA and carbohydrate residues of glycoproteins on the surface of the cells. [^125I]-human eotaxin (available from Amersham) binds specifically to CCR3 receptors bringing the [^125I]-human eotaxin in close proximity to the SPA beads. Emitted â-particles from the [^125I]-human eotaxin excite, by its proximity, the fluorophore in the beads and produce light.
Preparation of Assay Buffer 5.96 g HEPES and 7.0 g sodium chloride are dissolved in distilled H2O and 1 M aq. CaCl2 (1 ml) and 1 M aq. MgCl2 (5 ml) are added. The pH is adjusted to 7.6 with NaOH and the solution made to a final volume of 1 L using distilled H2O. 5 g of bovine serum albumin and 0.1 g NaN3 are dissolved in the solution and the resulting buffer stored at 4° C. […]
The assay is performed in a final volume of 250 μl per well of an Optiplate™ microplate (ex Canberra Packard). […] The resulting scintillations are counted using a Canberra Packard TopCount™ scintillation counter, each well being counted for 1 minute. […]

pIC50: −log10 of the molar value.

In the case of `O=C(C=C1CCN(CCc2ccc(F)cc2)CC1)NCc1ccc(F)c(F)c1` [Example 17, N-(3,4-Difluoro-benzyl)-2-{1-[2-(4-fluoro-phenyl)-ethyl]-piperidin-4-ylidene}-acetamide], the melting point is 117 to 120 °C. In addition, on human CCR3, the pIC50 was ~6.70.
Consider `O=C(C=C1CCN(Cc2ccc(F)cc2)CC1)NCc1ccc(F)c(F)c1` [Example 1, N-(3,4-Difluoro-benzyl)-2-[1-(4-fluoro-benzyl)-piperidin-4-ylidene]-acetamide], for which the melting point fell in the range of 83 to 85 °C.
